Measurements published in ChEMBL document CHEMBL3526078, “Pharmacokinetics and hepatic uptake of eltrombopag, a novel platelet-increasing agent” (Drug Metab Dispos, 2011).

Tests used:
[1] = target: T1, Solute carrier organic anion transporter family member 1B1 (Homo sapiens, UniProt Q9Y6L6); assay: Inhibition of OATP1B1-mediated [3H]estrone-3-sulfate uptake in human OATP1B1 expressing HEK293/PDZK1 cells by scintillation counting; type: ADME, cell-based; conditions: human, hek293/pdzk1
T1 sequence (Q9Y6L6 whole entry): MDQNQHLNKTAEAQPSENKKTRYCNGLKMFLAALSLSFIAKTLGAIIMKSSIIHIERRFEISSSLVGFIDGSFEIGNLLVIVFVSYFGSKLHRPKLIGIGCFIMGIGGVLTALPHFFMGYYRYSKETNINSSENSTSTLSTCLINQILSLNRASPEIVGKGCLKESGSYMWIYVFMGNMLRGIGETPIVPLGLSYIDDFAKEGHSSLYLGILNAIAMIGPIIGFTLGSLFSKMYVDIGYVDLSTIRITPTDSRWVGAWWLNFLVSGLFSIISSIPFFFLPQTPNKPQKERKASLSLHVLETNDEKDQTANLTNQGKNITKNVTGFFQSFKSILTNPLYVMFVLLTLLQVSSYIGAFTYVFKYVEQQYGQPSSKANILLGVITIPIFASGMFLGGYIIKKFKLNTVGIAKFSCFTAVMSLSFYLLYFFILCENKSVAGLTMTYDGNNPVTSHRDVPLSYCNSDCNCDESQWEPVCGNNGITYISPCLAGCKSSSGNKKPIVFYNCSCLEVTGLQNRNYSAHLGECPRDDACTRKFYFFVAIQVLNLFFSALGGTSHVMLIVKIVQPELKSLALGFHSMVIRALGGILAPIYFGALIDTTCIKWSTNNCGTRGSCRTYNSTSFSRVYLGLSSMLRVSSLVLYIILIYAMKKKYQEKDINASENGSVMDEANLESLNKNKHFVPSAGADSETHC

[2] = target: T2, Solute carrier organic anion transporter family member 2B1 (Homo sapiens, UniProt O94956); assay: Inhibition of OATP2B1-mediated [3H]estrone-3-sulfate uptake in human OATP2B1 expressing HEK293/PDZK1 cells by scintillation counting; type: ADME, cell-based; conditions: human, hek293/pdzk1
T2 sequence (O94956 whole entry): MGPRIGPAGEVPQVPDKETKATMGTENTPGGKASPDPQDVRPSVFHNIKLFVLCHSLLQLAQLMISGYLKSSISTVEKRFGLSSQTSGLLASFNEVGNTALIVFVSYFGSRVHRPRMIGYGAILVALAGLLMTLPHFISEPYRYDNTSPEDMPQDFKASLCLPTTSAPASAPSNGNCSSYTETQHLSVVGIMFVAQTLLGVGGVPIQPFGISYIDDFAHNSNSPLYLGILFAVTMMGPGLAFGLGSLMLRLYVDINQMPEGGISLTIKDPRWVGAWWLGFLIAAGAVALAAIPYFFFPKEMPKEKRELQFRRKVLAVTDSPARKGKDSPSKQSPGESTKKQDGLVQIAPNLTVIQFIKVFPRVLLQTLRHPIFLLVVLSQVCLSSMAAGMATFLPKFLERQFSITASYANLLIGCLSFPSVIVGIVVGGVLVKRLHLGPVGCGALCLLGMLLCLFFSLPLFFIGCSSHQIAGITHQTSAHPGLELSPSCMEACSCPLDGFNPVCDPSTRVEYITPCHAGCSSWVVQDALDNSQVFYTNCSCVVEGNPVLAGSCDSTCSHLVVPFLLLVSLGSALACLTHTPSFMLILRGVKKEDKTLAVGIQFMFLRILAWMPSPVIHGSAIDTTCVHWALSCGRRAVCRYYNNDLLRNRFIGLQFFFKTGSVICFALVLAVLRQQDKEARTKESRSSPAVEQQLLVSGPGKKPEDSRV

[3] = target: T3, Solute carrier organic anion transporter family member 1B3 (Homo sapiens, UniProt Q9NPD5); assay: Inhibition of OATP1B3-mediated [3H]estradiol 17beta-glucuronide uptake in human OATP1B3 expressing HEK293/PDZK1 cells by scintillation counting; type: ADME, cell-based; conditions: human, hek293/pdzk1
T3 sequence (Q9NPD5 whole entry): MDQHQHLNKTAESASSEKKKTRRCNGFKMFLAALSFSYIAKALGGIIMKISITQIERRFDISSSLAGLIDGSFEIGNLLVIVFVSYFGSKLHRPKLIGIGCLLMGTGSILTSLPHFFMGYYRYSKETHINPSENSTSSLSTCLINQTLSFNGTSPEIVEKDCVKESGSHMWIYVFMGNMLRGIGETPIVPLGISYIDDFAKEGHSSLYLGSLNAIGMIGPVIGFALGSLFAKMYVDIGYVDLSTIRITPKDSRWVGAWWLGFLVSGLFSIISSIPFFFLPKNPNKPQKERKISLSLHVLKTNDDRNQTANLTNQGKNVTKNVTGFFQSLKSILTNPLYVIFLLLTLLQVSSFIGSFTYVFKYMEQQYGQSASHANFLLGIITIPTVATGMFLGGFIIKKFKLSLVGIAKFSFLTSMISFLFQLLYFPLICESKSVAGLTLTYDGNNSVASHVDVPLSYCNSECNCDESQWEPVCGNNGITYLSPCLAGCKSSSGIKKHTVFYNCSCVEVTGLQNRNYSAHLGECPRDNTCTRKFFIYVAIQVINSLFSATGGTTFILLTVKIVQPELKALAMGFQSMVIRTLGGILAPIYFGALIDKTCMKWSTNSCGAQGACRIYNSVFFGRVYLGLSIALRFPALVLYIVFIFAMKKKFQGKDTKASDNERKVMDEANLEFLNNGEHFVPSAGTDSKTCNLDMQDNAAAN

[4] = target: T4, Organic cation/carnitine transporter 2 (Homo sapiens, UniProt O76082); assay: Inhibition of OCTN2-mediated [14C]carnitine uptake in human OCTN2 expressing HEK293/PDZK1 cells by scintillation counting; type: cell-based
T4 sequence (O76082 whole entry): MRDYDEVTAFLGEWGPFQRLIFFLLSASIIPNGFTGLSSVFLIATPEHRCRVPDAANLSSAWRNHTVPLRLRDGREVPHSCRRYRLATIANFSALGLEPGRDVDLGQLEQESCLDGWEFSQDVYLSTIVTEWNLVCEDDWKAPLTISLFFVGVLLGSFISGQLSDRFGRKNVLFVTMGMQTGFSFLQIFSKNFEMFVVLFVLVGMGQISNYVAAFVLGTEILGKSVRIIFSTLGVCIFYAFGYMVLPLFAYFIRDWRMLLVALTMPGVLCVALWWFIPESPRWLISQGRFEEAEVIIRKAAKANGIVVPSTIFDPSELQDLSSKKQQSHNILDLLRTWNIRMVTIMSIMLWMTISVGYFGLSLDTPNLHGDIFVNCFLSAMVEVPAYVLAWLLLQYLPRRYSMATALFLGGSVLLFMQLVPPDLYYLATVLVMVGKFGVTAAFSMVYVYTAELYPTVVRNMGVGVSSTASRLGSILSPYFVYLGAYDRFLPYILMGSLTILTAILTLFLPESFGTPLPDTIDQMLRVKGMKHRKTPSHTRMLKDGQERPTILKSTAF

Structure (SMILES) | inhibition (INH) [1] | inhibition (INH) [2] | inhibition (INH) [3] | inhibition (INH) [4]
O=C1OC(c2ccc(O)c(S(=O)(=O)O)c2)(c2ccc(O)c(S(=O)(=O)O)c2)c2c(Br)c(Br)c(Br)c(Br)c21 [SULFOBROMOPHTHALEIN] | Active | Active | Active | 
C[N+](C)(C)CC(O)CC(=O)[O-] (centres undefined) [CARNITINE] |  |  |  | Active
